Measured values published in patent publication US20110112308A1 (NOVARTIS AG, priority 2006, published 2011).
One block for each molecule: values may come before it.

Tests used:
[1] = Equilibration in solvents and buffers: form conversion; settings: water / aqueous solutions
[2] = Stability of mixtures with excipients; assay type: physicochemical; settings: for stability with all excipient mixtures tested, in words: after 2 weeks at 50° C./75% r.h.
Procedure: (§1) All samples were prepared/diluted to a concentration of 0.2 mg/mL in methanol prior to analysis by HPLC. A freshly prepared sample of each salt was used as the reference standard for external standard calibration analysis.

[3] = Intrinsic dissolution rate, rotation disk method; assay type: physicochemical; settings: for Intrinsic Dissolution Rate: 37° C., 200 r.p.m.
Procedure: Intrinsic Dissolution: […] […] Pellets of the other salts remained intact for at least several minutes enabling the determination of the intrinsic dissolution rate. Dissolution rate studies were performed using the rotation disk method ([…] Instrument). A single rotation speed of 200 r.p.m. was used to dissolve drug substance into a 500 mL vessel at 37° C. The solution was continuously pumped through a UV cell measurement and returned to the dissolution vessel.

[4] = Solid-state stability; assay type: physicochemical; settings: for Bulk stability (XRPD): 1 week
Procedure: as §1

[5] = Solution stability (HPLC); assay type: physicochemical; settings: for stability characteristics, in words: both in solution and in the solid state; for Unstressed (% Area): unstressed baseline of the stability study
Procedure: as §1

[6] = pH of saturated solution or 1% suspension in water; assay type: physicochemical; settings: In pH = 6.8 buffer
[7] = pH of saturated solution or 1% suspension in water; assay type: physicochemical; settings: room temperature
Procedure: pH Value: The pH at room temperature of a saturated solution or 1% suspension of the drug substance in water was recorded.

[8] = Solubility, 24-hour equilibration at room temperature; assay type: physicochemical; settings: for Solubility: approx. at 25° C.; for approximate solubility in water as %: estimated from mg/mL assuming solution density 1 g/mL
Procedure: Aqueous Solubility: A carefully weighted amount (20-50 mg) of sample is dissolved in 1 ml of solvent with 24-hour equilibration at room temperature. The solubility was determined either gravimetrically or by UV-VIS spectrometry. The pH of the clear solution was also measured. However, the difficulty of determining salt solubilities in water should be stressed, since upon dissolution dissociation to the free form is possible, which affects both the solubility and the pH. It's not unlikely that attempts to make solutions of a salt at a concentration well below the reported solubility of the salt to be unsuccessful (for a full discussion see: M. Pudipeddi, A. T. M. Serajuddin, D. J. W. Grant, and P. H. Stahl in “Handbook of Pharmaceutical Salts Properties Selection and Use” page 27 and references therein).

[9] = Mixture 1: 50% PVP + 50% Crospovidone, 50° C./75% r.h., 2 weeks
[10] = Mixture 2: 50% Starch 1500 + 5% MCC 102, 50° C./75% r.h., 2 weeks
[11] = Mixture 3: 5% PVP + 5% Crospovidone + 10% Starch 1500 + 80% MCC 102, 50° C./75% r.h., 2 weeks
[12] = Mixture 4: 99% Lactose + 1% BHT/BHA, 50° C./75% r.h., 2 weeks
[13] = Mixture 5: 99% Mannitol + 1% BHT/BHA, 50° C./75% r.h., 2 weeks
[14] = Mixture 6: 50% Mannitol + 47% HPCLH21 + 1% BHT/BHA + 2% Magnesium Stearate, 50° C./75% r.h., 2 weeks
[15] = Mixture 7: 50% Cetyl Alcohol + 49% HPCLH21 + 1% Magnesium Stearate, 50° C./75% r.h., 2 weeks
[16] = Water, free base pellet disintegrated, not true intrinsic rate
[17] = Bulk stability, 2 weeks, 50° C.
[18] = Bulk stability, 2 weeks, 50° C./20% water
[19] = Bulk stability, 2 weeks, 50° C./75% r.h.
[20] = Light study, 1200 kLux (300-800 nm)
[21] = 2 mg/mL in 100 mM lactate buffer, pH 3.5
[22] = 2 mg/mL in methanol, 1 week at 50° C.
[23] = 2 mg/mL in water, 1 week at 50° C.
[24] = 2 mg/mL, 100 mM lactate buffer pH 3.5, 1 week at 50° C.
[25] = 2 mg/mL, 100 mM lactate buffer pH 3.5, 1 week at 50° C., external standard
[26] = 2% in 0.5% HPMC 4000, 1 day at RT
[27] = 2% in 0.5% Klucel HF, 1 day at RT
[28] = 2% in 0.8% Tween 80, 1 day at RT
[29] = 5% solution, 1 day at RT (diluted 1:100 in pH 6.8 buffer)
[30] = Mixture 8: 100% PEG 3350, 50° C./75% r.h., 2 weeks

conversion upon equilibration [1]: polymorphic transformation
% DP (total degradation products) [2, 9]: 0.8 % area
% DS (drug substance) [2, 9]: 99.2 % area
% DP (total degradation products) [2, 10]: 0.7 % area
% DS (drug substance) [2, 10]: 99.3 % area
% DP (total degradation products) [2, 11]: 0.7 % area
% DS (drug substance) [2, 11]: 99.3 % area
% DP (total degradation products) [2, 12]: 0.8 % area
% DS (drug substance) [2, 12]: 99.2 % area
% DP (total degradation products) [2, 13]: 0.8 % area
% DS (drug substance) [2, 13]: 99.2 % area
% DP (total degradation products) [2, 14]: 0.7 % area
% DS (drug substance) [2, 14]: 99.3 % area
% DP (total degradation products) [2, 15]: 0.6 % area
% DS (drug substance) [2, 15]: 99.4 % area
% DP (total degradation products) ([2]; Standard, freshly prepared): 0.5 % area
% DS (drug substance) ([2]; Standard, freshly prepared): 99.5 % area
stability with all excipient mixtures tested, in words [2]: very good stability
intrinsic dissolution (rate), in words [3]: high
Intrinsic Dissolution Rate ([3]; HCl 0.1N): 6.51 mg min^−1 cm^−2
Intrinsic Dissolution Rate [3, 16]: 10.17 mg min^−1 cm^−2
Bulk stability (XRPD) ([4]; 80° C.): No change
Bulk stability (XRPD) ([4]; 80° C./75% r.h.): No change
% DP (total degradation products) [4, 17]: 0.80 % area
assay [4, 17]: [99.35]
% DP (total degradation products) [4, 18]: 1.48 % area
assay [4, 18]: [97.36]
% DP (total degradation products) [4, 19]: 1.20 % area
assay [4, 19]: [100.0]
% DP (total degradation products) [4, 20]: 1.16 % area
CL (appearance) [4, 20]: B (B = slight discoloration)
assay [4, 20]: [98.28]
pH of initial mixture [5, 21]: 3.48
% DP (total degradation products) [5, 22]: 0.62 % area
assay [5, 22]: [101.2]
pH of initial mixture ([5]; 2 mg/mL in water): 6.55
% DP (total degradation products) [5, 23]: 1.16 % area
assay [5, 23]: [99.30]
% DP (total degradation products) [5, 24]: 1.60 % area
assay [5, 25]: [99.25]
% DP (total degradation products) ([5]; 2% in 0.5% CMC, 1 day at RT): 0.74 % area
CL (appearance) ([5]; 2% in 0.5% CMC, 1 day at RT): A↓↓
assay ([5]; 2% in 0.5% CMC, 1 day at RT): [79.72]
% DP (total degradation products) [5, 26]: 0.66 % area
assay [5, 26]: [97.30]
% DP (total degradation products) [5, 27]: 0.66 % area
assay [5, 27]: [97.63]
% DP (total degradation products) [5, 28]: 0.63 % area
assay [5, 28]: [98.05]
% DP (total degradation products) [5, 29]: 0.78 % area
assay [5, 29]: [99.30]
stability characteristics, in words [5]: very good stability
Unstressed (% Area) [5]: 99.30% Area
pH of saturated solution [6]: 5.38
pH of saturated solution [7]: 4.34
aqueous solubility [8]: 12900 µg/mL
solubility in methanol and ethanol, in words [8]: high
solubility in other common / remaining organic solvents, in words [8]: appreciable
Solubility ([8]; 0.1N HCl): 600 µg/mL
Solubility ([8]; 2-Propanol): 2200 µg/mL
Solubility ([8]; Acetone): 3000 µg/mL
Solubility ([8]; Ethanol): 14600 µg/mL
Solubility ([8]; Ethyl acetate): 6400 µg/mL
Solubility ([8]; Methanol): >115000 µg/mL
Solubility ([8]; Propylene glycol): 46500 µg/mL
Solubility ([8]; Water): 12900 µg/mL
behaviour of clear aqueous solutions on storage ([8]; concentration below the reported solubility, precipitate found to be the free base): solid precipitation occurred
approximate solubility in water as % [8]: 1.3%
Solubility ([8]; pH = 6.8 buffer): 4100 µg/mL
Compound: CS(=O)(=O)O.Cc1[nH]c2ccccc2c1CCNCc1ccc(/C=C/C(=O)NO)cc1 [Mesylate, 1:1 mesylate salt of N-hydroxy-3-[4-[[[2-(2-methyl-1H-indol-3-yl)ethyl]amino]methyl]phenyl]-2E-2-propenamide]

% DP (total degradation products) [2, 9]: 0.5 % area
% DS (drug substance) [2, 9]: 99.5 % area
% DP (total degradation products) [2, 10]: 0.3 % area
% DS (drug substance) [2, 10]: 99.7 % area
% DP (total degradation products) [2, 11]: 0.3 % area
% DS (drug substance) [2, 11]: 99.7 % area
% DP (total degradation products) [2, 12]: 0.3 % area
% DS (drug substance) [2, 12]: 99.7 % area
% DP (total degradation products) [2, 13]: 0.3 % area
% DS (drug substance) [2, 13]: 99.7 % area
% DP (total degradation products) [2, 14]: 0.3 % area
% DS (drug substance) [2, 14]: 99.7 % area
% DP (total degradation products) [2, 15]: 0.3 % area
% DS (drug substance) [2, 15]: 99.7 % area
% DP (total degradation products) [2, 30]: 0.4 % area
% DS (drug substance) [2, 30]: 99.6 % area
% DP (total degradation products) ([2]; Standard, freshly prepared): 0.2 % area
% DS (drug substance) ([2]; Standard, freshly prepared): 99.8 % area
stability with all excipient mixtures tested, in words [2]: very good stability
intrinsic dissolution (rate), in words [3]: good
Intrinsic Dissolution Rate ([3]; HCl 0.1N): 1.00 mg min^−1 cm^−2
Intrinsic Dissolution Rate [3, 16]: 0.32 mg min^−1 cm^−2
Bulk stability (XRPD) ([4]; 80° C.): no change
Bulk stability (XRPD) ([4]; 80° C./75% r.h.): no change
% DP (total degradation products) [4, 17]: 0.71 % area
assay [4, 17]: [102.2]
% DP (total degradation products) [4, 18]: 0.71 % area
assay [4, 18]: [101.1]
% DP (total degradation products) [4, 19]: 0.58 % area
assay [4, 19]: [100.0]
% DP (total degradation products) [4, 20]: 3.02 % area
CL (appearance) [4, 20]: D (D = strong discoloration)
assay [4, 20]: [96.72]
pH of initial mixture [5, 21]: 3.51
% DP (total degradation products) [5, 22]: 0.83 % area
assay [5, 22]: [100.7]
pH of initial mixture ([5]; 2 mg/mL in water): 5.40
% DP (total degradation products) [5, 23]: 0.80 % area
CL (appearance) [5, 23]: A↓
assay [5, 23]: [97.26]
% DP (total degradation products) [5, 24]: 1.59 % area
CL (appearance) [5, 24]: A↓*
assay [5, 25]: [97.48]
% DP (total degradation products) ([5]; 2% in 0.5% CMC, 1 day at RT): 0.58 % area
CL (appearance) ([5]; 2% in 0.5% CMC, 1 day at RT): A↓↓
assay ([5]; 2% in 0.5% CMC, 1 day at RT): [77.42]
% DP (total degradation products) [5, 26]: 0.60 % area
assay [5, 26]: [94.63]
% DP (total degradation products) [5, 27]: 0.55 % area
assay [5, 27]: [96.78]
% DP (total degradation products) [5, 28]: 0.66 % area
assay [5, 28]: [96.83]
% DP (total degradation products) [5, 29]: 0.67 % area
CL (appearance) [5, 29]: A↓
assay [5, 29]: [97.92]
stability characteristics, in words [5]: very good stability
Unstressed (% Area) [5]: 99.48% Area
pH of saturated solution [6]: 5.70
pH of saturated solution [7]: 5.54
aqueous solubility [8]: 2600 µg/mL
solubility in methanol and ethanol, in words [8]: high
solubility in other common / remaining organic solvents, in words [8]: considerable
Solubility ([8]; 0.1N HCl): 700 µg/mL
Solubility ([8]; 2-Propanol): 1600 µg/mL
Solubility ([8]; Acetone): 3000 µg/mL
Solubility ([8]; Ethanol): 7200 µg/mL
Solubility ([8]; Ethyl acetate): 5600 µg/mL
Solubility ([8]; Methanol): 57000 µg/mL
Solubility ([8]; Propylene glycol): 32400 µg/mL
Solubility ([8]; Water): 2600 µg/mL
approximate solubility in water as % [8]: approximately 0.3%
Solubility ([8]; pH = 6.8 buffer): 1500 µg/mL
Compound: Cc1[nH]c2ccccc2c1CCNCc1ccc(/C=C/C(=O)NO)cc1.O=C(O)/C=C\C(=O)O [Maleate, 1:1 maleate salt of N-hydroxy-3-[4-[[[2-(2-methyl-1H-indol-3-yl)ethyl]amino]methyl]phenyl]-2E-2-propenamide]
